How the values were obtained:
middle cerebral artery [1] = system: middle cerebral artery
Procedure: In order to conduct irradiation of the rat middle cerebral artery at normal blood pressure, oral intubation was performed and mechanical ventilation was initiated after paralysis with pancuronium bromide. The rat was then placed on a tiltable stereotaxic frame, and the middle cerebral artery was exposed through a subtemporal approach. The right temporalis musculature was reflected anteriorally, and a 2×2 mm subtemporal craniotomy was carried out with the aid of a high-speed drill under a dissecting microscope, leaving the middle cerebral artery exposed and the dura intact at the level of the olfactory tract. Rose bengal dye (2 mg in 0.133 ml saline per 100 g animal weight) was administered intravenously, resulting in a blood concentration of 340 μM.
The right middle cerebral artery, at a point just distal to the olfactory branches, was irradiated with the beam of a tunable argon ion laser (Lexel Model 95, Cooper LaserSonics, Santa Clara, CA), operated at 514.5 nm in the continuous mode at a power level of 50 mW. The beam was focused longitudinally onto the middle cerebral artery with two cylindrical lenses, both of 30 cm focal length. […] During irradiation, the irradiated segment appeared orange, owing to rose bengal fluorescence in the flowing blood stream. […]

[2] = rat, in vivo; cited from earlier work
fibrinogen = assay: Immunofluorescence study of thrombus composition, fibrinogen; parameters: species or system rat
Procedure: (§1) Following incubation with primary antibody for one hour, FITC-conjugated goat anti-mouse IgG and goat anti-mouse IgG antibodies (Sigma Chemical Co., St. Louis, Mo.) were used as secondary antibodies for anti-fibrinogen and anti-Factor VIII, respectively. The sections were observed by epi-illumination with a Nikon Microphot-FX microscope.

middle cerebral artery [3] = assay: Argon laser photothrombotic occlusion of middle cerebral artery (Example 1); format: in vivo, rat (male Wistar)
Description: (§2) Male Wistar rats, each weighing 280 to 330 gm, were anesthetized with 1.5% halothane and maintained on a 70:30 mixture of nitrous oxide and oxygen delivered by a closely fitting Mylar face mask (Watson et al., J. Neurosurg., 66:748-754, 1987, the disclosure of which is hereby incorporated by reference and relied upon). After separation of the temporal musculature, the middle cerebral artery was exposed via a small subtemporal craniectomy produced by a high-speed drill under an operating microscope; the dura was left intact. The common carotid arteries were exposed bilaterally by a midline incision extending from the mental process to the sternal notch; the sternocleidomastoid muscle was then retracted laterally to expose the underlying artery. Bleeding from the operative site was controlled with pressure and Gelfoam. The animal was then prepared for irradiation by filling the surgical cavity with saline, just submerging the exposed blood vessel. The saline solution was kept clear by frequent suction and irrigation. The femoral arteries were exposed by bilateral inguinal incisions and were prepared for irradiation in a fashion similar to that described above.
Thrombus development and subsequent occlusion of the middle cerebral artery were easily observed during irradiation owing to wall transparency. The irradiated segment emitted a bright orange fluorescence (as viewed through an interference filter which rejected the 514.5 nm argon line); this was attributed to rose bengal uptake by red blood cell membranes and binding to plasma proteins such as albumin. As the irradiation proceeded, the fluorescence became yellowish and less intense owing to the accumulation of platelets and exclusion of red blood cells from the developing thrombus. Complete occlusion was signaled by exclusion of red blood cells from the arterial segments both distal and proximal to the irradiated portion, leaving a single colorless segment 7 to 10 arterial diameters in length.
(§3) Ultrastructural studies were carried out at either 30 minutes or 7 days following irradiation. Animals were perfused transcardially with 0.9% sodium chloride solution followed by 2% paraformaldehyde and 2.5% glutaraldehyde in a 0.1 M sodium phosphate buffer. Perfusion pressure was monitored throughout the procedure and was maintained at 100 mm Hg. After perfusion fixation, the femoral and common carotid arteries were isolated and placed in fixative for an additional 2 hours. To isolate the middle cerebral artery, the brain was first removed from the cranial vault and placed in fixative for a 2-hour period. Next, the whole brain was placed in phosphate-buffered 1% osmium tetroxide for 2 minutes.
The blood vessels were then postfixed in Millonig's phosphate-buffered 1% osmium tetroxide for 1 hour. Specimens chosen for transmission electron microscopy were dehydrated in ethanol and propylene oxide and embedded in Poly-Bed 812 as previously described (Dietrich et al., J Neuropathol. Exp. Neurol., 43:72-83, 1984). Sections 1 μm thick were cut with glass knives on a Sorvall ultra-microtome and stained with toluidine blue. To characterize the occlusive material more completely, ultra-thin sections stained with uranyl acetate and lead citrate were examined with a Zeiss EM-10C electron microscope. The blood vessels chosen for scanning electron microscopy analysis were examined under a dissecting microscope and cut longitudinally with a scalpel blade to expose the luminal surface. The blood vessels were then dehydrated in graded ethanols and placed in Freon. The tissue was critical-point dried, coated with gold, and examined and photographed with a JEOL JSM-35C scanning electron microscope.

common carotid artery = assay: Argon laser photothrombotic occlusion of common carotid artery (Example 1); format: in vivo, rat (male Wistar); settings: 514.5 nm argon laser
Description: as §2
As assessed by observation of rose bengal fluorescence, thrombus development in the common carotid or femoral arteries followed a course similar to that observed in the middle cerebral artery, except that the thrombus appeared as a […] as viewed through the blood vessel wall. Intense scattering of the incident laser light was also noted at about the time that arterial pulsations at the level of irradiation ceased.
as §3, with “To isolate the middle cerebral artery, the brain was first removed from the cranial vault and placed in fixative for a 2-hour period. Next, the whole brain was placed in phosphate-buffered 1% osmium tetroxide for 2 minutes.” left out

[4] = system: conjunctival epithelium on vascularized corneas; assay: Epithelial differentiation on photothrombosed corneas (goblet cells, cytology, histology); format: in vivo, New Zealand albino rabbit
Procedure: In order to study the goblet cell density on the vascularized corneas before and after photothrombosis, corneal flat-mounts were prepared and stained according to usual methods (Tseng et al., Invest. Opthalmol. Vis. Sci., 25:1168-76, 1984). The pattern of goblet cell disappearance was then analyzed and specifically correlated with the treated area.
(§4) The epithelial phenotype of the control and treated corneas was then studied by impression cytology (Tseng, Ophthalmology, 92:728-33, 1985) and routine histology using hematoxylin and PAS. In addition, immunofluorescent stainings of the frozen sections using a previously developed anti-rabbit ocular mucin monoclonal antibody [anti-ROM] was performed to study mucin expression.

rabbit ocular mucin = assay: Immunofluorescence of mucin expression with anti-ROM antibody; format: in vivo
Procedure: as §4
To further confirm the transition of epithelial differentiation, a monoclonal antibody against rabbit ocular mucin [anti-ROM] was used to examine the expression of mucin, the major product of goblet cells.

Factor VIII = assay: Immunofluorescence study of thrombus composition, Factor VIII; parameters: species or system rat
Procedure: as §1

O=C([O-])c1c(Cl)c(Cl)c(Cl)c(Cl)c1-c1c2cc(I)c(=O)c(I)c-2oc2c(I)c([O-])c(I)cc12.[Na+].[Na+] [rose bengal]
irradiation time (middle cerebral artery [1]; 2 mg per 100 g i.v., 50 mW, 514.5 nm): ~5 min | occluded segment length (middle cerebral artery [1]; rat, in vivo): approximately 1 mm | half-life in blood [2]: two | fibrinogen in photoinduced MCA thrombi (fibrinogen): abundance | length of colorless occluded segment (middle cerebral artery [3]; complete occlusion): 7 to 10 arterial diameters | recanalization on saline bolus (middle cerebral artery [3]; five minutes after completion of irradiation): no recanalization was observed | energy fluence (middle cerebral artery [3]; rat, in vivo): ~3.5 kJ/sq cm | total energy deposited (middle cerebral artery [3]; rat, in vivo): approximately 1 J | thrombus composition (middle cerebral artery [3]; ultrastructural analysis): composed primarily of aggregated platelets | irradiation time to effect complete occlusion (middle cerebral artery [3]; very low incident intensity): ≤ 3 min | complete occlusion, irradiation time (common carotid artery; 40 mg/kg i.v.): ≤ 3 min | energy fluence at occlusion (common carotid artery): about 35 kJ/sq cm | total energy deposited at occlusion (common carotid artery): 140 to 180 joules (J) | goblet cells on the cornea ([4]; four weeks): no goblet cells were noted | histology of epithelium ([4]; four weeks): stratified cornea-like epithelium | goblet cell density, cytology ([4]; one week): decreased goblet cell density | epithelial N/C ratio ([4]; one week, impression cytology): slight increase | goblet cell density ([4]; treated areas, four days): remarkably decreased | mucin in epithelium of occluded corneas (rabbit ocular mucin; four weeks): complete absence | expression of mucin antigen (rabbit ocular mucin; with time after vessel occlusion): diminish gradually with time | Factor VIII in photoinduced MCA thrombi (Factor VIII): abundance

Reference: patent US5053006A, “Method for the permanent occlusion of arteries” (priority 1990, dated 1991)
